PubChem BioAssay AID1918953 (Molecular Pharmacology Branch, DTP, NCI, 2023)
pIC50: −log10 of the molar value. Where “and” joins values, the source holds several entries; their conditions need not be identical. Identical values can stand only once.

Tested on: MDA-MB-231 complex spheroid viability
Test: Anticancer human tumor MDA-MB-231/ATCC cell line growth inhibition;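 note: drug exposure lasted 7 days starting on day 3 of spheroid growth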
Conditions: for viability, T/C: stronger effect = lower value
Outline: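 Multicellular complex spheroids of tumor cells with human endothelial cells (HUVEC) and mesenchymal stem cells; the LSD1 inhibitor iadademstat was combined with standard-of-care or investigational agents. Top concentration at or near clinical Cmax, half-log dilutions; final DMSO ≤0.25%.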

`COc1cc(C2c3cc4c(cc3C(OC3OC5COC(C)OC5C(O)C3O)C3COC(=O)C23)OCO4)cc(OC)c1O` (configuration not stated) was tested, and the viability, T/C (compound 0.00949 µM) was 96.1% and 79.9%, the viability, T/C (compound 0.03 µM) was 76.1% and 47.9% and the viability, T/C (compound 0.0949 µM) was 49.9% and 32.6%. The viability, T/C (compound 0.3 µM) was 35% and 22.9%, the viability, T/C (compound 0.949 µM) was 13.5% and 10.3% and the viability, T/C (compound 3 µM) was 6.1% and 8.34%. The pIC50 (curve of compound) was 6.97 and 7.51.
With `O=C(C=Cc1cccc(S(=O)(=O)Nc2ccccc2)c1)NO` + NC1CCC(NC2CC2c2ccccc2)CC1 the pIC50 (curve of first compound, second compound 0.1 µM) was 6.95, the pIC50 (curve of first compound, second compound 0.316 µM) was 6.97 and the pIC50 (curve of first compound, second compound 1 µM) was 7.18. The pIC50 (curve of first compound, second compound 3.16 µM) was 7.66, the pIC50 (curve of first compound, second compound 10 µM) was > 8.02 and the viability, T/C (second compound 0.1 µM, first compound 0.00949 µM) was 90.7%. It also gave a viability, T/C (second compound 0.1 µM, first compound 0.03 µM) of 75.7%, a viability, T/C (second compound 0.1 µM, first compound 0.0949 µM) of 53% and a viability, T/C (second compound 0.1 µM, first compound 0.3 µM) of 30.5%. It also gave a viability, T/C (second compound 0.1 µM, first compound 0.949 µM) of 13.7%, a viability, T/C (second compound 0.1 µM, first compound 3 µM) of 0.59% and a viability, T/C (second compound 0.316 µM, first compound 0.00949 µM) of 86.3%. For the same compound, the viability, T/C (second compound 0.316 µM, first compound 0.03 µM) was 69.6%, the viability, T/C (second compound 0.316 µM, first compound 0.0949 µM) was 53.5% and the viability, T/C (second compound 0.316 µM, first compound 0.3 µM) was 30.8%. For the same compound, the viability, T/C (second compound 0.316 µM, first compound 0.949 µM) was 14.1%, the viability, T/C (second compound 0.316 µM, first compound 3 µM) was 1.38% and the viability, T/C (second compound 1 µM, first compound 0.00949 µM) was 79.1%. For the same compound, the viability, T/C (second compound 1 µM, first compound 0.03 µM) was 61.8%, the viability, T/C (second compound 1 µM, first compound 0.0949 µM) was 43.6% and the viability, T/C (second compound 1 µM, first compound 0.3 µM) was 30.3%. For the same compound, the viability, T/C (second compound 1 µM, first compound 0.949 µM) was 11.3%, the viability, T/C (second compound 1 µM, first compound 3 µM) was 0.68% and the viability, T/C (second compound 3.16 µM, first compound 0.00949 µM) was 61.4%. It also gave a viability, T/C (second compound 3.16 µM, first compound 0.03 µM) of 45.3%, a viability, T/C (second compound 3.16 µM, first compound 0.0949 µM) of 31% and a viability, T/C (second compound 3.16 µM, first compound 0.3 µM) of 20.8%. For the same compound, the viability, T/C (second compound 3.16 µM, first compound 0.949 µM) was 6.19%, the viability, T/C (second compound 3.16 µM, first compound 3 µM) was 0.34% and the viability, T/C (second compound 10 µM, first compound 0.00949 µM) was 39.8%. The viability, T/C (second compound 10 µM, first compound 0.03 µM) was 29.8%, the viability, T/C (second compound 10 µM, first compound 0.0949 µM) was 17.9% and the viability, T/C (second compound 10 µM, first compound 0.3 µM) was 13.9%. It also gave a viability, T/C (second compound 10 µM, first compound 0.949 µM) of 3.39% and a viability, T/C (second compound 10 µM, first compound 3 µM) of 0.33%.
